Measured values from article PMC11363342 (ACS Central Science, 2024).
Like-named read-outs stand apart in the source and are kept apart here.

How the values were obtained:
SARS-CoV-2 [1] = assay: microbe, parasite or virus in culture; assay type: cell-based
in vitro = conditions: African green monkey
[2] = test system: recombinant Mus musculus α-Glu II; assay: Thermal shift assay (SYPRO orange); assay type: binding; conditions: 10 μM Mmα-Glu-II with 50 μM inhibitor; unliganded control 49.9 °C
SARS-CoV-2 [3] = assay: Plaque reduction assay on H1299/ACE2 cells (time of treatment); assay type: cell-based; conditions: H1299/ACE2; compound 11 at 5 μM
Protocol: To evaluate whether compound 11 has an effect on host proteins (for instance, ACE2) involved in viral entry, we treated monolayers of H1299/ACE2 cells with compound 11 either 48 or 2 h before infection, during infection (0–1 h), or starting from 1 h postinfection (hpi). The cell monolayers were infected with ∼20 PFU of SARS-CoV-2, and after 1 h the inoculum was replaced with an overlay. In one well (Post Infection) the overlay contained compound 11. Remdesivir, a viral RNA synthesis inhibitor, was added to the overlay of another well, as a positive control for blocking virus replication in the cell.
H1299/ACE2 cells were seeded in a 6-well plate at a density of 1.3 × 10^5 cells/well (20% confluency), 96 h prior to infection. […] The monolayers were infected with ∼20 PFU of SARS-CoV-2/Leiden0008. In the postinfection treatment, the compound (or RDV) was added to the Avicel overlay. Cells were incubated for 4 days at 37 °C before fixation and crystal violet staining.

GBA1 = conditions: cited from earlier work
GBA2 = conditions: cited from earlier work
SARS-CoV-2 [4] = assay type: cell-based
SARS-CoV-2 [5] = assay: Viral load reduction assay in ALI-PBEC; assay type: cell-based; conditions: 48 hpi
Protocol: Thus, ALI-PBEC cells were infected with SARS-CoV-2 (10^5 PFU per insert; estimated MOI ∼0.1) and treated with compounds on the apical side of the cells for 2 h. For uninfected controls, PBS was used instead of virus. The compounds were also present in the basal medium during the whole experiment until 48 hpi, when samples were harvested. […] (Figure 4D).
ALI-PBEC were pretreated with compound in the basal medium for 3 h. Cells were infected with 100 000 PFU of SARS-CoV-2/Leiden0008 per insert (estimated MOI 0.1) with compounds present in the inoculum. After 2 h at 37 °C on a rocking platform, the inoculum was removed and cells were washed three times with warm PBS. Compounds stayed present in the basal medium until 48 h postinfection. At 48 hpi the viral load was determined by plaque assay on a 200 μL apical wash (PBS incubated on the apical side of the insets for 10 min at 37 °C). For assessing cytotoxicity with the CyQuant LDH cytotoxicity assay (Thermo Fisher Scientific), 10 μL of apical wash was diluted 5 times with 40 μL of PBS. A 25 μL volume of this dilution was added to 25 μL of assay reagent and incubated for 30 min at RT in the dark. The plate was fixed and measured at a wavelength of 490 nm (Envision reader, PerkinElmer). For the activity-based probe labeling, the insets were washed one more time with PBS and processed as described previously.[52] Briefly, cells were lysed with 60 μL of potassium phosphate buffer per insert. A fluorescently labeled probe (JJB383) was diluted in MclIvaine buffer (pH 7) to a 10 μM stock and incubated for 5 min on ice. For labeling of the cell lysate, 10 μL of lysate was added to 10 μL of MclIvaine buffer and 5 μL of probe. The lysate was incubated for 30 min at 37 °C before the addition of 10 μL of Laemmli sample buffer (4×). Samples were heated at 95 °C for 5 min and separated in a 10% SDS-PAGE gel. Fluorescence was measured at a wavelength of 625 nm (Cy5) with a Uvitec Alliance Q9 imager (BioSPX). After imaging, the gels were stained with GelCode Blue stain reagent (Thermo Fisher Scientific) and visualized using a Uvitec Essential V6 system to check for equal loading.

GBA3 = conditions: cited from earlier work
SARS-CoV-2 [6] = assay: CPE reduction assay on H1299/ACE2 lung epithelial cells; assay type: cell-based; conditions: compared with Vero E6
HCoV-229E = assay type: cell-based
[7] = Severe acute respiratory syndrome coronavirus 2, Vero C1008, Vero E6 cells, SARS-CoV-2/Leiden0002, n = 3, mean ± SEM, read-out: EC50 (μM), SARS-CoV-2 CPE reduction
[8] = Severe acute respiratory syndrome coronavirus 2, Vero C1008, read-out: EC50 (μM), SARS-CoV-2 CPE reduction

SMILES	EC50 (SARS-CoV-2 [1]; [7])	CC50 at 3 days (in vitro)	further results
OC[C@@H]1[C@@H](O)[C@H](O)[C@@H](O)CN1CCCCCOCC1CCCO1 (some centres unmarked) [Compound 4]	51.7 ± 3.37 µM	> 200 µM	–
CO[C@H]1[C@H]2OS(=O)(=O)O[C@H]2[C@H](CO)[C@@H](O)[C@@H]1OC [Compound 16]	> 200 µM	> 200 µM	–
OC[C@H]1C[C@H]2[C@@H]([C@@H](O)[C@@H]1O)N2CCCCCOCc1ccc2ccccc2c1 (some centres unmarked) [Compound 23]	–	> 200 µM	EC50 (SARS-CoV-2 [1]; [8]): 64.9 ± 0.77 µM
O=S1(=O)N[C@@H]2[C@H](O)[C@@H](O)[C@H](O)[C@@H](CO)[C@@H]2O1 [Compound 18]	> 100 µM	> 200 µM	–
CO[C@@H]1[C@@H](O)[C@H](O)[C@@H](CO)[C@@H]2OS(=O)(=O)O[C@H]12 [Compound 12]	> 200 µM	> 200 µM	–
CO[C@H]1[C@H](O)[C@@H](O)[C@H]2OS(=O)(=O)O[C@H]2[C@@H]1CO [Compound 14]	16.9 ± 2.1 µM	> 200 µM	–
OC[C@H]1C[C@@H]2O[C@@H]2[C@@H](O)[C@@H]1O [Compound 20]	17.7 ± 1.28 µM	> 200 µM	Tm/°C [2]: 64.7 °C
OC[C@@H]1[C@@H](O)[C@H](O)[C@@H](O)CN1CCCCCOCC12CC3CC(CC(C3)C1)C2 [Compound 5]	13.9 ± 8 µM	200 µM	–
CCC(CC)COC(=O)[C@H](C)N[P@](=O)(OC[C@H]1O[C@@](C#N)(c2ccc3c(N)ncnn23)[C@H](O)[C@@H]1O)Oc1ccccc1 [remdesivir, reference compound]	–	–	plaque formation, treatment after infection (in the overlay) (SARS-CoV-2 [3]): prevented the formation of plaques
OC[C@H]1C[C@H]2[C@@H]([C@@H](O)[C@@H]1O)N2CCCCCOCC12CC3CC(CC(C3)C1)C2 (some centres unmarked) [Compound 27]	–	100 µM	EC50 (SARS-CoV-2 [1]; [8]): 26.9 ± 1.3 µM
CO[C@H]1[C@H](O)[C@@H](CO)[C@@H]2OS(=O)(=O)O[C@@H]2[C@@H]1O [Compound 13]	> 200 µM	> 200 µM	–
O=S1(=O)N[C@@H]2[C@H](O)[C@@H](O)[C@H](O)[C@@H](CO)[C@@H]2N1 [Compound 19]	> 200 µM	> 200 µM	–
CCCC(=O)N1[C@@H]2[C@@H](O)[C@H](O)[C@@H](CO)C[C@@H]21 [Compound 25]	22.2 ± 4.12 µM	> 200 µM	–
OC[C@H]1C[C@H]2[C@@H]([C@@H](O)[C@@H]1O)N2CCCCCOCc1ccc(-c2ccccc2)cc1 (some centres unmarked) [Compound 24]	–	200 µM	EC50 (SARS-CoV-2 [1]; [8]): 28.6 ± 0.21 µM
COC[C@@H]1[C@@H](O)[C@H](O)[C@@H](O)[C@H]2OS(=O)(=O)O[C@@H]12 [Compound 15]	> 100 µM	> 200 µM	–
OC[C@H]1C[C@H]2[C@@H]([C@@H](O)[C@@H]1O)N2CCCCCOCc1cccc2ccccc12 (some centres unmarked) [Compound 28]	–	> 200 µM	EC50 (SARS-CoV-2 [1]; [8]): 56.7 ± 1.38 µM
OC[C@@H]1[C@@H](O)[C@H](O)[C@@H](O)CN1CCCCCOCc1cc2ccccc2c2ccccc12 [Compound 3]	3.25 ± 0.42 µM	–	CC50 (in vitro): 50 µM
OC[C@@H]1[C@@H](O)[C@H](O)[C@@H](O)[C@H]2O[C@@H]12 [Compound 9, 1,6-epi-cyclophellitol]	> 200 µM	> 200 µM	inhibition of GBA1 (GBA1): partially inhibit; inhibition of GBA2 (GBA2): partially inhibit
CCCCN1C[C@H](O)[C@@H](O)[C@H](O)[C@H]1CO [Compound 1, N-butyl-DNJ, reference compound]	114 ± 10.3 µM	> 200 µM	EC50 (SARS-CoV-2 [1]; Vero E6 cells, SARS-CoV-2/Leiden0002, n = 3, mean ± SEM, read-out: EC50 (μM), SARS-CoV-2 CPE reduction): > 100 µM; reduction of infectious progeny production (in words) (SARS-CoV-2 [4]): only minimally; viral load in ALI-PBEC (in words) (SARS-CoV-2 [5]; 100 μM (highest concentration)): only a slight effect; inhibition of GBA3 (GBA3): inhibits
CCCCCCOCCCCCN1C[C@H](O)[C@@H](O)[C@H](O)[C@H]1CO [Compound 6]	11.8 ± 0.8 µM	> 200 µM	–
OC[C@@H]1[C@@H](O)[C@H](O)[C@@H](O)[C@H]2N[C@@H]12 [Compound 10, 1,6-epi-cyclophellitol aziridine]	14 ± 3.2 µM	> 200 µM	inhibition of GBA1 (GBA1): partially inhibit; inhibition of GBA2 (GBA2): partially inhibit
O=S1(=O)O[C@@H]2[C@@H](O)[C@H](O)[C@@H](CO)C[C@@H]2O1 [Compound 22]	> 200 µM	> 200 µM	Tm/°C [2]: 51.7 °C
CCCCN1[C@@H]2[C@@H](O)[C@H](O)[C@@H](CO)C[C@@H]21 (some centres unmarked) [Compound 26]	–	> 200 µM	EC50 (SARS-CoV-2 [1]; [8]): 91.4 ± 20.6 µM
COCCCCCCCCCN1C[C@H](O)[C@@H](O)[C@H](O)[C@H]1CO [UV-4, reference compound]	–	–	EC50 values in CPE reduction assay (in words) (SARS-CoV-2 [6]): comparable EC50 values
CC(C)(C)COCCCCCN1C[C@H](O)[C@@H](O)[C@H](O)[C@H]1CO [Compound 7]	22.7 ± 4.3 µM	> 200 µM	–
OC[C@@H]1[C@@H](O)[C@H](O)[C@@H](O)CN1CCCCCOCc1ccc2ccccc2c1 [Compound 2, naphthyl-deoxynojirimycin]	6 ± 0.4 µM	> 200 µM	Tm/°C [2]: 63.5 °C; virus infectivity of HCoV-229E (in words) (HCoV-229E): did not show any reduction in virus infectivity; viral load in ALI-PBEC (in words) (SARS-CoV-2 [5]; 10 and 100 μM): reduced SARS-CoV-2 to similar titers; EC50 values in CPE reduction assay (in words) (SARS-CoV-2 [6]): comparable EC50 values
OC[C@H]1C[C@@H]2N[C@@H]2[C@@H](O)[C@@H]1O [Compound 21]	–	> 200 µM	EC50 (SARS-CoV-2 [1]; [8]): 67.6 ± 14.8 µM; Tm/°C [2]: 49.5 °C
OC[C@H]1[C@@H](O)[C@H](O)[C@@H](O)CN1CCCCCOCC12CC3CC(CC(C3)C1)C2 [Compound 8]	104 ± 12.4 µM	> 200 µM	–
O=S1(=O)N[C@H]2[C@H](CO)[C@@H](O)[C@H](O)[C@@H](O)[C@H]2O1 [Compound 17]	45.3 ± 1.52 µM	> 200 µM	–
